Marks after values point to notes of the source that are not given here.
Assay: Weight gain, feed efficiency, breast and leg quarter weights, last 28 days of growing period in broiler chickens
Format: in vivo
Details: for Bone-in, Skin-on Breast Weight / Bone-in, Skin-on leg Quarter Weight / Dressing Percentage / Fat Pad Weight / Final Weight Day 49 / Hot Carcass Weight / Interim Weight Day 35 / Pen Feed Intake / Total Weight Gain (d 21-49) / Viscera Weight / Weight Gain Period 1 (d 21-35) / Weight Gain Period 2 (d 35-49) / Feed Efficiency F/G: day 21-49; for Feed Efficiency F/G: pen feed intake/total pen weight; for improvement of feed efficiency (feed/gain) compared with control: 28-day treatment period
Excerpt: Approximately 2500 Peterson-Hubbard, day-old, male chicks were used in a randomized, complete-block design with 3 treatments (Control and Compound 6 at 3 and 15 PPM (mg/kg feed)). The testing facility contained two wings, each containing 30 pens. The pens in each wing were divided into 6 blocks of 5 pens. Treatments were randomly allotted within each block. Each treatment consisted of 12 pens with 10 birds per pen.
Day-of-age birds were obtained from Pine Manor Hatchery in Goshen, Ind. Approximately 40 birds per pen were set at random upon receipt. On day 16 of the growout period, all birds were weighed and the 15 birds closest to the block mean were selected. These birds were allowed to acclimate until day 21 of age. On this day, all remaining birds were weighed again, and the 10 birds/pen closest to the block mean were chosen for the treatment phase. Birds were provided ad libitum access to feed and water throughout the trial. All birds were fed a 23% crude protein corn-soy ration from day 1 until day 18 of age. The feed was changed to a 20% crude protein ration for day 18 to day 49. The treatment feed was mixed using the 20% crude protein basal ration. Treatments were administered in the feed from day 21 through day 49. An interim weight was taken on day 35. Feed consumption was calculated over the entire 28-day treatment period. Birds were weighed at trial completion (day 49), and were transported to Purdue University meat laboratory for slaughter and carcass measurements on day, 50. Weights of the hot carcass; fat pad; viscera; bone-in, skin-on breast; and bone-in, skin-on, leg quarter were taken on all animals.

## CC(C)(Cc1ccc(Oc2ncccc2C(N)=O)cc1)NC[C@H](O)COc1cccc2[nH]ccc12 [Compound 6, (S)-2-[4-[2-[2-Hydroxy-3-(1H-indol-4-yloxy)propylamino]-2-methylpropyl]-phenoxy]-3-pyridinecarboxamide]
3 PPM in feed
  Bone-in, Skin-on Breast Weight: 618.03* g
  Bone-in, Skin-on leg Quarter Weight: 665.64** g
  Dressing Percentage: 71.14**
  Fat Pad Weight: 51.67 g
  Final Weight Day 49: 2.78** kg
  Hot Carcass Weight: 1995.58** g
  Interim Weight Day 35: 1.66* kg
  Pen Feed Intake: 41.22 kg
  Total Weight Gain (d 21-49): 2.09** kg
  Viscera Weight: 265.82 g
  Weight Gain Period 1 (d 21-35): 0.96* kg
  Weight Gain Period 2 (d 35-49): 1.12** kg
  Feed Efficiency F/G: 2.04
3 PPM, P=0.1426
  improvement of feed efficiency (feed/gain) compared with control: 6.85%
3 PPM, P=0.0001
  increase in bone-in, skin-on, leg quarters weight: 10.63%
  increase in hot carcass weights over control: 6.50%
3 PPM, P=0.4004
  decrease in viscera weights compared to control: 1.54%
3 PPM, entire 28-day treatment period, P=0.0051
  increase in weight gain over control: 5.03%
3 PPM, first 14 days of the treatment period, P=0.0395
  increase in weight gain over control: 3.22%
3 PPM, last 14 days of treatment, P=0.0064
  increase in weight gain over control: 6.67%
15 PPM in feed
  Bone-in, Skin-on Breast Weight: 600.55 g
  Bone-in, Skin-on leg Quarter Weight: 635.36** g
  Dressing Percentage: 71.16**
  Fat Pad Weight: 49.16 g
  Final Weight Day 49: 2.70 kg
  Hot Carcass Weight: 1928.17* g
  Interim Weight Day 35: 1.63 kg
  Pen Feed Intake: 39.09 kg
  Total Weight Gain (d 21-49): 2.01 kg
  Viscera Weight: 261.08 g
  Weight Gain Period 1 (d 21-35): 0.94 kg
  Weight Gain Period 2 (d 35-49): 1.07 kg
  Feed Efficiency F/G: 2.09
15 PPM, P=0.3594
  improvement of feed efficiency (feed/gain) compared with control: 4.57%
15 PPM, P=0.0003
  increase in bone-in, skin-on, leg quarters weight: 5.60%
15 PPM, P=0.0434
  increase in hot carcass weights over control: 2.90%
15 PPM, P=0.0764
  decrease in viscera weights compared to control: 3.29%
15 PPM, entire 28-day treatment period, P=0.5419
  increase in weight gain over control: 1.01%
15 PPM, first 14 days of the treatment period, P=0.7600
  increase in weight gain over control: 1.08%
15 PPM, last 14 days of treatment, P=0.5028
  increase in weight gain over control: 1.90%
At either dose (3 PPM, 15 PPM)
  effect on fat pad weight (fat accretion): no significant effect
High dose (15 PPM), P=0.5351
  increase in breast muscle weight (bone and skin attached): 1.06%
Low dose (3 PPM), P=0.0227
  increase in breast muscle weight (bone and skin attached): 4.00%
